Measured values as given in ChEMBL document CHEMBL1128242, “Polyiodinated triglyceride analogs as potential computed tomography imaging agents for the liver” (J Med Chem, 1995).

Key:
[1] = tested on: Rattus norvegicus; test: Distribution of radioactivity was determined in spleen at 30 min after intravenous administration of 1,3-Disubstituted Triacylglycerols in rats; type: ADME, organism-based; conditions: in vivo, 0.5 h
[2] = tested on: Rattus norvegicus; test: Distribution of radioactivity was determined in thyroid at 30 min after intravenous administration of [125I]-labeled 2-oleoglycerol 1,3-Bis-[omega-(3-amino-2,4,6-triiodophenyl)alkanoates] in rats; type: ADME, organism-based, Thyroid gland; conditions: in vivo, 0.5 h
[3] = tested on: Rattus norvegicus; test: Analysis of lipid-soluble radioactivity in liver 24 hour after iv administration of [125I]-labeled 2-Oleoyl 1,3-disubstituted Triacylglycerols expressed as %parent compound (by TLC with authentic [125I]-labeled standard) from rat; type: ADME, organism-based; conditions: in vivo
[4] = tested on: Rattus norvegicus; test: Distribution of radioactivity was determined in heart at 30 min after intravenous administration of [125I]-labeled 2-oleoglycerol 1,3-Bis-[omega-(3-amino-2,4,6-triiodophenyl)alkanoates] in rats; type: ADME, organism-based; conditions: in vivo, 0.5 h
[5] = tested on: Rattus norvegicus; test: Analysis of lipid-soluble radioactivity in liver 0.5 hour after iv administration of [125I]-labeled 2-Oleoyl 1,3-disubstituted Triacylglycerols and represented as % CHCl3/CH3OH from rat; type: ADME, organism-based; conditions: in vivo
[6] = tested on: Rattus norvegicus; test: Distribution of radioactivity was determined in lung at 30 min after intravenous administration of [125I]-labeled 2-oleoglycerol 1,3-Bis-[omega-(3-amino-2,4,6-triiodophenyl)alkanoates] in rats; type: ADME, organism-based; conditions: in vivo, 0.5 h
[7] = tested on: Rattus norvegicus; test: Distribution of radioactivity was determined in blood at 3h after intravenous administration of [125I]-labeled 2-oleoglycerol 1,3-Bis-[omega-(3-amino-2,4,6-triiodophenyl)alkanoates] in rats; type: ADME, organism-based; conditions: in vivo
[8] = tested on: Rattus norvegicus; test: Distribution of radioactivity was determined in plasma at 30 min after intravenous administration of [125I]-labeled 2-oleoglycerol 1,3-Bis-[omega-(3-amino-2,4,6-triiodophenyl)alkanoates] in rats; type: ADME, organism-based; conditions: in vivo, 0.5 h
[9] = tested on: Rattus norvegicus; test: Distribution of radioactivity was determined in liver at 30 min after intravenous administration of 1,3-Disubstituted Triacylglycerols in rats; type: ADME, organism-based; conditions: in vivo, 0.5 h
[10] = tested on: Rattus norvegicus; test: Distribution of radioactivity was determined in heart at 24 after intravenous administration of [125I]-labeled 2-oleoglycerol 1,3-Bis-[omega-(3-amino-2,4,6-triiodophenyl)alkanoates] in rats; type: ADME, organism-based; conditions: in vivo
[11] = tested on: Rattus norvegicus; test: Distribution of radioactivity was determined in blood at 3h after intravenous administration of 1,3-Disubstituted Triacylglycerols in rats; type: ADME, organism-based; conditions: in vivo
[12] = tested on: Rattus norvegicus; test: Distribution of radioactivity was determined in kidney at 30 min after intravenous administration of [125I]-labeled 2-oleoglycerol 1,3-Bis-[omega-(3-amino-2,4,6-triiodophenyl)alkanoates] in rats; type: ADME, organism-based; conditions: in vivo, 0.5 h
[13] = tested on: Rattus norvegicus; test: Distribution of radioactivity was determined in spleen at 30 min after intravenous administration of [125I]-labeled 2-oleoglycerol 1,3-Bis-[omega-(3-amino-2,4,6-triiodophenyl)alkanoates] in rats; type: ADME, organism-based; conditions: in vivo, 0.5 h
[14] = tested on: Rattus norvegicus; test: Distribution of radioactivity was determined in thyroid at 3h after intravenous administration of [125I]-labeled 2-oleoglycerol 1,3-Bis-[omega-(3-amino-2,4,6-triiodophenyl)alkanoates] in rats; type: ADME, organism-based, Thyroid gland; conditions: in vivo
[15] = tested on: Rattus norvegicus; test: Distribution of radioactivity was determined in spleen at 24 hr after intravenous administration of 1,3-Disubstituted Triacylglycerols in rats; type: ADME, organism-based; conditions: in vivo
[16] = tested on: Rattus norvegicus; test: Distribution of radioactivity was determined in kidney at 24 hr after intravenous administration of [125I]-labeled 2-oleoglycerol 1,3-Bis-[omega-(3-amino-2,4,6-triiodophenyl)alkanoates] in rats; type: ADME, organism-based; conditions: in vivo
[17] = tested on: Rattus norvegicus; test: Polyacrylamide Gel Electrophoresis (PAGE) to determined the concentration of stacking gel(SG) in rats after iv administration of [125I]-labeled 2-Oleolyl 1,3-disubstituted triglycerols was reported; type: ADME, organism-based; conditions: in vivo
[18] = tested on: Rattus norvegicus; test: Distribution of radioactivity was determined in heart at 3h after intravenous administration of [125I]-labeled 2-oleoglycerol 1,3-Bis-[omega-(3-amino-2,4,6-triiodophenyl)alkanoates] in rats; type: ADME, organism-based; conditions: in vivo
[19] = tested on: Rattus norvegicus; test: Distribution of radioactivity was determined in blood at 30 min after intravenous administration of [125I]-labeled 2-oleoglycerol 1,3-Bis-[omega-(3-amino-2,4,6-triiodophenyl)alkanoates] in rats; type: ADME, organism-based; conditions: in vivo, 0.5 h
[20] = tested on: Rattus norvegicus; test: Distribution of radioactivity was determined in blood at 48 hr after intravenous administration of 1,3-Disubstituted Triacylglycerols in rats; type: ADME, organism-based; conditions: in vivo
[21] = tested on: Rattus norvegicus; test: Distribution of radioactivity was determined in spleen at 48 hr after intravenous administration of 1,3-Disubstituted Triacylglycerols in rats; type: ADME, organism-based; conditions: in vivo
[22] = tested on: Rattus norvegicus; test: Distribution of radioactivity was determined in blood at 24 hr after intravenous administration of 1,3-Disubstituted Triacylglycerols in rats; type: ADME, organism-based; conditions: in vivo
[23] = tested on: Rattus norvegicus; test: Distribution of radioactivity was determined in spleen at 3h after intravenous administration of 1,3-Disubstituted Triacylglycerols in rats; type: ADME, organism-based; conditions: in vivo
[24] = tested on: Rattus norvegicus; test: Analysis of lipid-soluble radioactivity in liver 24 hour after iv administration of [125I]-labeled 2-Oleoyl 1,3-disubstituted Triacylglycerols and represented as % CHCl3/CH3OH from rat; type: ADME, organism-based; conditions: in vivo
[25] = tested on: Rattus norvegicus; test: Distribution of radioactivity was determined in blood at 24 hr after intravenous administration of [125I]-labeled 2-oleoglycerol 1,3-Bis-[omega-(3-amino-2,4,6-triiodophenyl)alkanoates] in rats; type: ADME, organism-based; conditions: in vivo
[26] = tested on: Rattus norvegicus; test: Polyacrylamide Gel Electrophoresis (PAGE) to determined the concentration of albumin(ALB) in rats after iv administration of [125I]-labeled 2-Oleolyl 1,3-disubstituted triglycerols was reported; type: ADME, organism-based; conditions: in vivo
[27] = tested on: Rattus norvegicus; test: Polyacrylamide Gel Electrophoresis (PAGE) to determined the concentration of low density lipoprotein (LDL) in rats after iv administration of [125I]-labeled 2-Oleolyl 1,3-disubstituted triglycerols was reported; type: ADME, organism-based; conditions: in vivo
[28] = tested on: Rattus norvegicus; test: Distribution of radioactivity was determined in liver at 48 hr after intravenous administration of 1,3-Disubstituted Triacylglycerols in rats; type: ADME, organism-based; conditions: in vivo
[29] = tested on: Rattus norvegicus; test: Distribution of radioactivity was determined in liver at 3h after intravenous administration of [125I]-labeled 2-oleoglycerol 1,3-Bis-[omega-(3-amino-2,4,6-triiodophenyl)alkanoates] in rats; type: ADME, organism-based; conditions: in vivo
[30] = tested on: Rattus norvegicus; test: Distribution of radioactivity was determined in lung at 24 hr after intravenous administration of [125I]-labeled 2-oleoglycerol 1,3-Bis-[omega-(3-amino-2,4,6-triiodophenyl)alkanoates] in rats; type: ADME, organism-based; conditions: in vivo
[31] = tested on: Rattus norvegicus; test: Distribution of radioactivity was determined in spleen at 3h after intravenous administration of [125I]-labeled 2-oleoglycerol 1,3-Bis-[omega-(3-amino-2,4,6-triiodophenyl)alkanoates] in rats; type: ADME, organism-based; conditions: in vivo
[32] = tested on: Rattus norvegicus; test: Polyacrylamide Gel Electrophoresis (PAGE) to determined the concentration of below albumin(BA) in rats after iv administration of [125I]-labeled 2-Oleolyl 1,3-disubstituted triglycerols was reported; type: ADME, organism-based; conditions: in vivo
[33] = tested on: Rattus norvegicus; test: Analysis of lipid-soluble radioactivity in plasma 24 hour after iv administration of [125I]-labeled 2-Oleoyl 1,3-disubstituted Triacylglycerols and represented as % CHCl3/CH3OH from rat; type: ADME, organism-based; conditions: in vivo
[34] = tested on: Rattus norvegicus; test: Analysis of lipid-soluble radioactivity in plasma 0.5 hour after iv administration of [125I]-labeled 2-Oleoyl 1,3-disubstituted Triacylglycerols expressed as %parent compound (by TLC with authentic [125I]-labeled standard) from rat; type: ADME, organism-based; conditions: in vivo
[35] = tested on: Rattus norvegicus; test: Distribution of radioactivity was determined in kidney at 3h after intravenous administration of [125I]-labeled 2-oleoglycerol 1,3-Bis-[omega-(3-amino-2,4,6-triiodophenyl)alkanoates] in rats; type: ADME, organism-based; conditions: in vivo

| Distribution of radioactivity [1] | Distribution of radioactivity [2] | Lipid-soluble radioactivity [3] | Distribution of radioactivity [4] | Lipid-soluble radioactivity [5] | Distribution of radioactivity [6] | Distribution of radioactivity [7] | Distribution of radioactivity [8] | Radioactivity per organ [9] | Distribution of radioactivity [10] | Distribution of radioactivity [11] | Distribution of radioactivity [12] | Distribution of radioactivity [13] | Distribution of radioactivity [14] | Distribution of radioactivity [15] | Distribution of radioactivity [16] | Radioactivity [17] | Distribution of radioactivity [18] | Distribution of radioactivity [19] | Distribution of radioactivity [20] | Compound | other results |
| --- | --- | --- | --- | --- | --- | --- | --- | --- | --- | --- | --- | --- | --- | --- | --- | --- | --- | --- | --- | --- | --- |
| 10.5 % dose/organ | 0.31 % dose/g | 0 | 0.55 % dose/g | 56 | 0.66 % dose/g | 0.28 % dose/g | 0.83 % dose/g | 67.7 % dose/organ | 0.1 % dose/g | 2.7 % dose/organ | 0.2 % dose/g | 21.8 % dose/g | 1.69 % dose/g | 0.8 % dose/organ | 0.22 % dose/g | 28.1% | 0.22 % dose/g | 0.59 % dose/g | 0.4 % dose per organ | CCCCCCCC/C=C/CCCCCCCC(=O)OC(COC(=O)CCCCCCc1c(I)cc(I)c(N)c1I)COC(=O)CCCCCCc1c(I)cc(I)c(N)c1I | Distribution of radioactivity [21]: 0.3 % dose per organ; Distribution of radioactivity [22]: 2.5 % dose/organ; Distribution of radioactivity [23]: 8.2 % dose/organ; Lipid-soluble radioactivity [24]: 30.2; Distribution of radioactivity [25]: 0.22 % dose/g; Radioactivity [26]: 66.3%; Radioactivity [27]: 0.2%; Distribution of radioactivity [28]: 4.4 % dose/organ; Distribution of radioactivity [29]: 5.84 % dose/g; Distribution of radioactivity [30]: 0.29 % dose/g; Distribution of radioactivity [31]: 15.3 % dose/g; Radioactivity [32]: 5.1%; Lipid-soluble radioactivity [33]: 15.3; Lipid-soluble radioactivity [34]: 0; Distribution of radioactivity [35]: 0.18 % dose/g |
| 12 % dose/organ | 0.16 % dose/g | 87.5 | 0.36 % dose/g | 62.6 | 0.72 % dose/g | 0.04 % dose/g | 1.25 % dose/g | 69.8 % dose/organ | 0.03 % dose/g | 0.5 % dose/organ | 0.1 % dose/g | 23.4 % dose/g | 0.27 % dose/g | 12.2 % dose/organ | 0.07 % dose/g | 95.7% | 0.1 % dose/g | 0.69 % dose/g | 0.1 % dose per organ | CCCCCCCC/C=C/CCCCCCCC(=O)OC(COC(=O)Cc1c(I)cc(I)c(N)c1I)COC(=O)Cc1c(I)cc(I)c(N)c1I | Distribution of radioactivity [21]: 16.6 % dose per organ; Distribution of radioactivity [22]: 0.2 % dose/organ; Distribution of radioactivity [23]: 14.5 % dose/organ; Lipid-soluble radioactivity [24]: 59.5; Distribution of radioactivity [25]: 0.01 % dose/g; Radioactivity [26]: 1.8%; Radioactivity [27]: 0.6%; Distribution of radioactivity [28]: 59.7 % dose/organ; Distribution of radioactivity [29]: 10.3 % dose/g; Distribution of radioactivity [30]: 0.52 % dose/g; Distribution of radioactivity [31]: 23.6 % dose/g; Radioactivity [32]: 1.1%; Lipid-soluble radioactivity [33]: 24.4; Distribution of radioactivity [35]: 0.04 % dose/g |
